Reference: patent US20260248126A1, “BIOCIDE” (PURGOS APS, priority 2020, published 2026)
Several values for one entry are separate records, joined by “and”; a condition that tells them apart may be missing. Identical values can stand only once.

What was measured:
[1] = system: Lactobacillus brevis ISI 2269; assay: Minimum bactericidal concentration (MBC), outgrowth from MIC plates; assay type: cell-based
Excerpt: (§1) Even when no growth is detectable in the MIC tests, it is possible that the microorganisms have survived the treatment i.e., they are not killed but just prevented from growing. In order to test for survivors, MBC plates were subsequently made from the MIC plates.

[2] = system: Debaryomyces hansenii ISI 12; assay: as above; assay type: cell-based
Excerpt: as §1

Bacillus cereus ISI 842 [3] = assay: as above; assay type: cell-based
Excerpt: as §1

[4] = system: Streptococcus termophilus ISI 1563; assay: as above; assay type: cell-based
Excerpt: as §1

[5] = system: Listeria monocytogenes ISI 22; assay: as above; assay type: cell-based
Excerpt: as §1

[6] = system: Pseudomonas aeruginosa ISI 1462; assay: as above; assay type: cell-based
Excerpt: as §1

[7] = system: Leuconostoc mesenteroides ISI 504; assay: as above; assay type: cell-based
Excerpt: as §1

Aspergillus niger ISI 3 [8] = assay: as above; assay type: cell-based
Excerpt: as §1

Aspergillus niger ISI 3 [9] = assay: Minimal inhibitory concentration (MIC), microtiter plate read visually; assay type: cell-based
Procedure: (§2) For the tested substance. the stock solution was 10%. Minimum inhibitory concentrations (MICs) are defined as the lowest concentration of an antimicrobial that will inhibit the visible growth of a microorganism after a standardized incubation. In the present study, MIC assay was performed by pipetting robot. The principle is that an indicator microorganism at a defined cell density is cultured with a range of concentrations of the test compound, one concentration pr. well in a row on the microtiter plate. For bacteria and yeasts the minimal inhibitory concentration was detected as no increase of optical density (OD), for moulds microtiter plates were read visually. Each indicator organism is tested in duplicate and the MIC is calculated as the average of the two determinations. The tested concentrations of the antimicrobial substances were 2-fold dilutions from 5%. All indicator organisms (see Table 2.) were pre-cultivated in a suitable growth medium and diluted in the same medium to give a final concentration in the assay of ~1×10^3 cfu/ml. The microtiter plates were incubated under specific incubation conditions (see Table 3). [table]

[10] = 10% N-BDA in water; cited from earlier work
Poria placenta. FPRL 280 = assay: EN 113 test against wood destroying basidiomycetes (impregnated Scots pine sapwood); assay type: cell-based; settings: for Corrected mass loss / Mass loss: Mean
Murine norovirus = assay: Antiviral activity, ASTM E1052 Kill Time Screen test; assay type: cell-based; settings: in 60 seconds; from log reduction 0.34
[11] = system: Lactobacillus brevis ISI 2269; assay: Minimal inhibitory concentration (MIC), microtiter plate; assay type: cell-based
Procedure: as §2

[12] = system: Debaryomyces hansenii ISI 12; assay: as above; assay type: cell-based
Procedure: as §2

Bacillus cereus ISI 842 [13] = assay: as above; assay type: cell-based
Procedure: as §2

[14] = system: Streptococcus termophilus ISI 1563; assay: as above; assay type: cell-based
Procedure: as §2

[15] = system: Listeria monocytogenes ISI 22; assay: as above; assay type: cell-based
Procedure: as §2

[16] = system: Pseudomonas aeruginosa ISI 1462; assay: as above; assay type: cell-based
Procedure: as §2

[17] = system: Leuconostoc mesenteroides ISI 504; assay: as above; assay type: cell-based
Procedure: as §2

CCCCN(CCO)CCO [NBDA, N-butyldiethanolamine]
MBC(%) [1]: 0.31%
MBC(%) [2]: 2.5%
MBC(%) (Bacillus cereus ISI 842 [3]): 1.25%
MBC(%) [4]: 1.25%
optical density (OD), MIC Data (second Streptococcus table) ([4]; NBDA 0.02%): 0.346 and 0.323
optical density (OD), MIC Data (second Streptococcus table) ([4]; NBDA 0.04%): 0.307 and 0.283
optical density (OD), MIC Data (second Streptococcus table) ([4]; NBDA 0.08%): 0.311 and 0.304
optical density (OD), MIC Data (second Streptococcus table) ([4]; NBDA 0.16%): 0.251 and 0.232
optical density (OD), MIC Data (second Streptococcus table) ([4]; NBDA 0.31%): 0.802 and 0.522
optical density (OD), MIC Data (second Streptococcus table) ([4]; NBDA 0.63%): 0.277 and 0.427
optical density (OD), MIC Data (second Streptococcus table) ([4]; NBDA 1.25%): 0.072
optical density (OD), MIC Data (second Streptococcus table) ([4]; NBDA 2.50%): 0.070 and 0.068
optical density (OD), MIC Data (second Streptococcus table) ([4]; NBDA 5.00%): 0.062 and 0.058
MBC(%) [5]: 2.5%
MBC(%) [6]: 1.25%
MBC(%) [7]: 0.63%
optical density (OD), MRC Data ([7]; NBDA 0.02%): 1.449 and 1.467
optical density (OD), MRC Data ([7]; NBDA 0.04%): 1.449 and 1.468
optical density (OD), MRC Data ([7]; NBDA 0.08%): 1.413 and 1.467
optical density (OD), MRC Data ([7]; NBDA 0.16%): 1.337 and 1.425
optical density (OD), MRC Data ([7]; NBDA 0.31%): 1.452 and 1.448
optical density (OD), MRC Data ([7]; NBDA 1.25%): 0.075
optical density (OD), MRC Data ([7]; NBDA 2.50%): 0.076 and 0.077
optical density (OD), MRC Data ([7]; NBDA 5.00%): 0.066 and 0.067
MBC(%) (Aspergillus niger ISI 3 [8]): 0.63%
MIC (%) (Aspergillus niger ISI 3 [9]): 0.63%
pH [10]: around 11.1
Toxic value, Sol. conc. (Poria placenta. FPRL 280): 0.72-1.01 % w/w
Corrected mass loss (Poria placenta. FPRL 280; Solution conc. 0.36 % w/w): 14.2%
Corrected mass loss (Poria placenta. FPRL 280; Solution conc. 0.72 % w/w): 8.2%
Mass loss (Poria placenta. FPRL 280; Solution conc. 0.72 % w/w): 7.8%
Corrected mass loss (Poria placenta. FPRL 280; Solution conc. 1.01 % w/w): 1.4%
Mass loss (Poria placenta. FPRL 280; Solution conc. 1.01 % w/w): 1.0%
Corrected mass loss (Poria placenta. FPRL 280; Solution conc. 1.43 % w/w): 1.5%
Mass loss (Poria placenta. FPRL 280; Solution conc. 1.43 % w/w): 0.4%
fungicide effect, preventing wood destruction (Poria placenta. FPRL 280; concentrations of 0.36%, 0.51%, 0.72%, 1.01% and 1.43%): effective as a fungicide for preventing wood destruction
Norovirus eliminated / destroyed (Murine norovirus): 54%
MIC (%) [11]: 0.16%
MIC (%) [12]: 1.25%
MIC (%) (Bacillus cereus ISI 842 [13]): 1.25%
MIC (%) [14]: 0.63%
MIC (%) [15]: 1.25%
MIC (%) [16]: 0.63%
MIC (%) [17]: 0.31%
